# Reference: patent US20230406843A1, “Progranulin Modulators and Methods of Using the Same” (ARKUDA THERAPEUTICS, priority 2020, published 2023)
# System: progranulin
# Assay: Progranulin induction cellular assay (ELISA of secreted mouse PGRN)
# Assay type: cell-based
# Settings: Mus musculus, BV-2, read-out: EC50 μM
# How it was run: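 Mouse primary microglia, primary cortical neurons and BV-2 cells are used. BV-2 cells are plated in 96-well format the day before, with a 1 h attachment and 16 h incubation. Progranulin secreted into the medium is quantified by ELISA.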
row,SMILES,EC50 [µM]
1,"COC[C@@]1(N)CC[C@@H](C(=O)N2CCc3ccccc3[C@@H]2c2ccc(F)cc2)OC1 [Compound 5217, ((2S,5S)-5-amino-5-(methoxymethyl)tetrahydro-2H-pyran-2-yl)((S)-1-(4-fluorophenyl)-3,4-dihydroisoquinolin-2(1H)-yl)methanone]",0.226
2,"COC[C@]1(N)CC[C@@H](C(=O)N2CCc3ccccc3[C@@H]2c2ccc(F)cc2)OC1 [Compound 5218, ((2S,5R)-5-amino-5-(methoxymethyl)tetrahydro-2H-pyran-2-yl)((S)-1-(4-fluorophenyl)-3,4-dihydroisoquinolin-2(1H)-yl)methanone]",0.12
3,"COC[C@]1(N)CC[C@H](C(=O)N2CCc3ccccc3[C@@H]2c2ccc(F)cc2)OC1 [Compound 5219, ((2R,5R)-5-amino-5-(methoxymethyl)tetrahydro-2H-pyran-2-yl)((S)-1-(4-fluorophenyl)-3,4-dihydroisoquinolin-2(1H)-yl)methanone]",0.006
4,"COC[C@@]1(N)CC[C@H](C(=O)N2CCc3ccccc3[C@@H]2c2ccc(F)cc2)OC1 [Compound 5220, ((2R,5S)-5-amino-5-(methoxymethyl)tetrahydro-2H-pyran-2-yl)((S)-1-(4-fluorophenyl)-3,4-dihydroisoquinolin-2(1H)-yl)methanone]",0.081
5,"CC(=O)N[C@@H]1CO[C@@H](C(=O)N2CCc3ccccc3[C@@H]2c2ccc(F)cc2)C[C@@H]1N [Compound 5427, N-((3S,4S,6R)-4-amino-6-((S)-1-(4-fluorophenyl)-1,2,3,4-tetrahydroisoquinoline-2-carbonyl)tetrahydro-2H-pyran-3-yl)acetamide]",0.096

# Same assay, conditions: progranulin induction assay; mouse pMG, primary cortical neurons and BV-2 cell lines named, cell type not given; ELISA-based readout; read-out: EC50
row,EC50 [µM],SMILES
1,0.074,"CCO[C@H]1C[C@H](C(=O)N2CCc3ccccc3[C@@H]2c2ccc(F)cc2)OC[C@H]1N [Compound 5088, ((2R,4S,5R)-5-amino-4-ethoxytetrahydro-2H-pyran-2-yl)((S)-1-(4-fluorophenyl)-3,4-dihydroisoquinolin-2(1H)-yl)methanone]"
2,0.062,"N[C@@H]1CO[C@@H](C(=O)N2CCc3ccccc3[C@@H]2c2ccc(F)cc2)C[C@@H]1OC(F)F [Compound 5089, ((2R,4S,5R)-5-amino-4-(difluoromethoxy)tetrahydro-2H-pyran-2-yl)((S)-1-(4-fluorophenyl)-3,4-dihydroisoquinolin-2(1H)-yl)methanone]"
3,0.184,"N[C@@H]1C[C@H](C(=O)N2CCc3ccccc3[C@@H]2c2ccc(F)cc2)OC[C@H]1O [Compound 5092, ((2R,4R,5S)-4-amino-5-hydroxytetrahydro-2H-pyran-2-yl)((S)-1-(4-fluorophenyl)-3,4-dihydroisoquinolin-2(1H)-yl)methanone]"
4,0.182,N[C@@H]1CC[C@H](C(=O)N2CCc3ccccc3[C@@H]2c2ccc(F)cc2F)OC1 [Compound 5207]
5,0.596,"N[C@H]1CO[C@@H](C(=O)N2CCc3ccccc3[C@@H]2c2ccc(F)cc2)C[C@@H]1F [Compound 5210, ((2R,4S,5S)-5-amino-4-fluorotetrahydro-2H-pyran-2-yl)((S)-1-(4-fluorophenyl)-3,4-dihydroisoquinolin-2(1H)-yl)methanone]"
6,0.209,"O=C([C@H]1CC[C@@H](NCCO)CO1)N1CCc2ccccc2[C@@H]1c1ccc(F)cc1 [Compound 5211, ((S)-1-(4-fluorophenyl)-3,4-dihydroisoquinolin-2(1H)-yl)((2R,5R)-5-((2-hydroxyethyl)amino)tetrahydro-2H-pyran-2-yl)methanone]"
7,0.314,"COCCN[C@@H]1CC[C@H](C(=O)N2CCc3ccccc3[C@@H]2c2ccc(F)cc2)OC1 [Compound 5212, ((S)-1-(4-fluorophenyl)-3,4-dihydroisoquinolin-2(1H)-yl)((2R,5R)-5-((2-methoxyethyl)amino)tetrahydro-2H-pyran-2-yl)methanone]"
8,0.401,"N[C@]1(CO)CC[C@@H](C(=O)N2CCc3ccccc3[C@@H]2c2ccc(F)cc2)OC1 [Compound 5213, ((2S,5S)-5-amino-5-(hydroxymethyl)tetrahydro-2H-pyran-2-yl)((S)-1-(4-fluorophenyl)-3,4-dihydroisoquinolin-2(1H)-yl)methanone]"
9,0.08,"N[C@@]1(CO)CC[C@@H](C(=O)N2CCc3ccccc3[C@@H]2c2ccc(F)cc2)OC1 [Compound 5214, ((2S,5R)-5-amino-5-(hydroxymethyl)tetrahydro-2H-pyran-2-yl)((S)-1-(4-fluorophenyl)-3,4-dihydroisoquinolin-2(1H)-yl)methanone]"
10,0.14,"N[C@@]1(CO)CC[C@H](C(=O)N2CCc3ccccc3[C@@H]2c2ccc(F)cc2)OC1 [Compound 5215, ((2R,5R)-5-amino-5-(hydroxymethyl)tetrahydro-2H-pyran-2-yl)((S)-1-(4-fluorophenyl)-3,4-dihydroisoquinolin-2(1H)-yl)methanone]"
11,0.295,"N[C@]1(CO)CC[C@H](C(=O)N2CCc3ccccc3[C@@H]2c2ccc(F)cc2)OC1 [Compound 5216, ((2R,5S)-5-amino-5-(hydroxymethyl)tetrahydro-2H-pyran-2-yl)((S)-1-(4-fluorophenyl)-3,4-dihydroisoquinolin-2(1H)-yl)methanone]"
12,0.316,C[C@]1(C(=O)N2CCc3ccccc3[C@@H]2c2ccc(F)cc2)CCNCCO1 [Compound 5239]
13,0.631,C[C@@]1(C(=O)N2CCc3ccccc3[C@@H]2c2ccc(F)cc2)CCNCCO1 [Compound 5240]
14,0.2,"O=C([C@@H]1OCCNC[C@@H]1O)N1CCc2ccccc2[C@@H]1c1ccc(F)cc1 [Compound 5243, ((S)-1-(4-fluorophenyl)-3,4-dihydroisoquinolin-2(1H)-yl)((6S,7R)-6-hydroxy-1,4-oxazepan-7-yl)methanone]"
15,0.091,O=C([C@H]1OCCNC[C@@H]1O)N1CCc2ccccc2[C@@H]1c1ccc(F)cc1 [Compound 5244]
16,0.35,O=C([C@@H]1OCCNC[C@H]1O)N1CCc2ccccc2[C@@H]1c1ccc(F)cc1 [Compound 5245]
17,0.095,"CO[C@@H]1CO[C@@H](C(=O)N2CCc3ccccc3[C@@H]2c2ccc(F)cc2)C[C@H]1N [Compound 5247, ((2R,4R,5S)-4-amino-5-methoxytetrahydro-2H-pyran-2-yl)((S)-1-(4-fluorophenyl)-3,4-dihydroisoquinolin-2(1H)-yl)methanone]"

row,EC50 [µM],SMILES
1,0.032,"CCO[C@H]1CO[C@@H](C(=O)N2CCc3ccccc3[C@@H]2c2ccc(F)cc2)C[C@H]1N [Compound 5248, ((2R,4R,5R)-4-amino-5-ethoxytetrahydro-2H-pyran-2-yl)((S)-1-(4-fluorophenyl)-3,4-dihydroisoquinolin-2(1H)-yl)methanone]"
2,0.095,"N[C@@H]1C[C@H](C(=O)N2CCc3ccccc3[C@@H]2c2ccc(F)cc2)OC[C@@H]1F [Compound 5250, ((2R,4R,5R)-4-amino-5-fluorotetrahydro-2H-pyran-2-yl)((S)-1-(4-fluorophenyl)-3,4-dihydroisoquinolin-2(1H)-yl)methanone]"
3,0.188,"N[C@@H]1C[C@H](C(=O)N2CCc3ccccc3[C@@H]2c2ccc(F)cc2)OC[C@H]1F [Compound 5251, ((2R,4R,5S)-4-amino-5-fluorotetrahydro-2H-pyran-2-yl)((S)-1-(4-fluorophenyl)-3,4-dihydroisoquinolin-2(1H)-yl)methanone]"
4,0.03,N[C@H]1CC[C@H](C(=O)N2CCc3ccccc3[C@@H]2c2ccc(F)cc2F)OC1 [Compound 5255]
5,0.1,N[C@@H]1CCO[C@@H](C(=O)N2CCc3ccccc3[C@@H]2c2ccc(F)cc2F)C1 [Compound 5256]
6,0.022,N[C@H]1C[C@H](C(=O)N2CCc3ccccc3[C@@H]2c2ccc(F)cc2F)OC[C@H]1O [Compound 5257]
7,0.062,N[C@@H]1CO[C@@H](C(=O)N2CCc3ccccc3[C@@H]2c2ccc(F)cc2F)C[C@@H]1O [Compound 5258]
8,0.046,CO[C@H]1C[C@H](C(=O)N2CCc3ccccc3[C@@H]2c2ccc(F)cc2F)OC[C@H]1N [Compound 5259]
9,0.079,CO[C@@H]1CO[C@@H](C(=O)N2CCc3ccccc3[C@@H]2c2ccc(F)cc2F)C[C@@H]1N [Compound 5261]
10,0.044,CCO[C@@H]1CO[C@@H](C(=O)N2CCc3ccccc3[C@@H]2c2ccc(F)cc2F)C[C@@H]1N [Compound 5262]
11,0.036,"O=C([C@H]1C[C@@H]2NCCO[C@H]2CO1)N1CCc2ccccc2[C@@H]1c1ccc(F)cc1 [Compound 5266, ((S)-1-(4-fluorophenyl)-3,4-dihydroisoquinolin-2(1H)-yl)((4aR,7R,8aS)-octahydropyrano[3,4-b][1,4]oxazin-7-yl)methanone]"
12,0.0001,"CC(C)O[C@H]1CO[C@@H](C(=O)N2CCc3ccccc3[C@@H]2c2ccc(F)cc2)C[C@@H]1N [Compound 5267, ((2R,4S,5R)-4-amino-5-isopropoxytetrahydro-2H-pyran-2-yl)((S)-1-(4-fluorophenyl)-3,4-dihydroisoquinolin-2(1H)-yl)methanone]"
13,0.736,"O=C([C@H]1CNCCO1)N1CCc2ccccc2[C@@H]1c1ccc(F)cc1 [Compound 5405, ((S)-1-(4-fluorophenyl)-3,4-dihydroisoquinolin-2(1H)-yl)((R)-morpholin-2-yl)methanone]"
14,0.715,"O=C([C@@H]1CNCCO1)N1CCc2ccccc2[C@@H]1c1ccc(F)cc1 [Compound 5406, ((S)-1-(4-fluorophenyl)-3,4-dihydroisoquinolin-2(1H)-yl)((S)-morpholin-2-yl)methanone]"
15,0.843,O=C([C@H]1OCCNC[C@H]1F)N1CCc2ccccc2[C@@H]1c1ccc(F)cc1 [Compound 5421]
16,0.186,"CS[C@@H]1CO[C@@H](C(=O)N2CCc3ccccc3[C@@H]2c2ccc(F)cc2)C[C@@H]1N [Compound 5425, ((2R,4S,5S)-4-amino-5-(methylthio)tetrahydro-2H-pyran-2-yl)((S)-1-(4-fluorophenyl)-3,4-dihydroisoquinolin-2(1H)-yl)methanone]"
17,0.441,"CS(=O)(=O)[C@@H]1CO[C@@H](C(=O)N2CCc3ccccc3[C@@H]2c2ccc(F)cc2)C[C@@H]1N [Compound 5426, ((2R,4S,5S)-4-amino-5-(methylsulfonyl)tetrahydro-2H-pyran-2-yl)((S)-1-(4-fluorophenyl)-3,4-dihydroisoquinolin-2(1H)-yl)methanone]"
